Results on eight compounds are retold here after ChEMBL document CHEMBL4152326 (2018).

The source made the active and inactive calls. No cut-off for these calls is given here. A value given as a limit tells only on which side of the number the result lay.

One may read the MIC as the lowest concentration found to suppress growth. The ED50 is the dose at which the effect has come halfway, by size or by number of responders.

A short description of assay [1]: Iron chelating activity in presence of cetyltrimethylammonium bromide at pH 5.5 by chromeazurol B dye based spectrophotometric method.
The next assay relates to Klebsiella pneumoniae. Description: Antimicrobial activity against KPC-2 producing Klebsiella pneumoniae ATCC BAA-1705 in presence of human apo-transferrin by broth microdilution method. The format is functional. For orientation: Dilution methods test growth across graded concentrations, often in twofold steps.
The test system of assay [2] is Pseudomonas aeruginosa. Nature of the assay: Antimicrobial activity against Pseudomonas aeruginosa 27060deltaR1 harboring deletion of R1 plasmid in presence of human apo-transferrin by broth microdilution method. The format is functional.
The test system of another assay is Acinetobacter baumannii. Description: Antimicrobial activity against OXA-23/OXA-58 producing Acinetobacter baumannii SR27323 in presence of human apo-transferrin by broth microdilution method. The assay is classed as functional.
Assay [3] concerns Pseudomonas aeruginosa. Description: Antimicrobial activity against Pseudomonas aeruginosa SR24 in presence of human apo-transferrin by broth microdilution method. The format is functional.
The subject of assay [4] is Pseudomonas aeruginosa. Description: Antimicrobial activity against IMP-1 producing Pseudomonas aeruginosa SR27001 in presence of human apo-transferrin by broth microdilution method. The assay is classed as functional.
Assay [5] concerns Pseudomonas aeruginosa. Description: Antibacterial activity against Pseudomonas aeruginosa SR27001 infected in Jcl:ICR mouse systemic infection model assessed as increase in mouse survival rate administered iv 1 to 5 hrs post infection measured over 7 days. The assay is classed as functional.
Another assay has as its system Escherichia coli. Description: Antimicrobial activity against SHV-4 producing Escherichia coli ATCC BAA-200 in presence of human apo-transferrin by broth microdilution method. The format is functional.
Assay [6] relates to Pseudomonas aeruginosa. Description: Antimicrobial activity against IMP-1 producing Pseudomonas aeruginosa SR27060 in presence of human apo-transferrin by broth microdilution method. The assay is classed as functional.
Assay [7] concerns Pseudomonas aeruginosa. Nature of the assay: Antimicrobial activity against AmpC overproducing Pseudomonas aeruginosa SR24-12 in presence of human apo-transferrin by broth microdilution method. The format is functional.
Assay [8] deals with Stenotrophomonas maltophilia. Nature of the assay: Antimicrobial activity against L-1 producing Stenotrophomonas maltophilia SR21970 in presence of human apo-transferrin by broth microdilution method. The format is functional.
Assay [9] concerns Pseudomonas aeruginosa. Nature of the assay: Antimicrobial activity against VIM-2 producing Pseudomonas aeruginosa SBRKM-28 in presence of human apo-transferrin by broth microdilution method. The assay is classed as functional.

For the compound `CC(C)(O/N=C(\C(=O)N[C@@H]1C(=O)N2C(C(=O)[O-])=C(C[N+]3(CCNC(=O)c4ccc(O)c(O)c4Cl)CCCC3)CS[C@H]12)c1csc(N)n1)C(=O)O` [CEFIDEROCOL], the outcome in [1] was Active. In addition, the MIC with Klebsiella pneumoniae was 0.063 µg/mL; in the assay with Pseudomonas aeruginosa [2] it was 1 µg/mL; in the assay with Acinetobacter baumannii it was 1 µg/mL; in the assay with Pseudomonas aeruginosa [3] it was 0.25 µg/mL; in the assay with Pseudomonas aeruginosa [4], 1 µg/mL; with Escherichia coli, 1 µg/mL. In addition, the MIC in the assay on Pseudomonas aeruginosa [6] came to 2 µg/mL; with Pseudomonas aeruginosa [7], 0.5 µg/mL. Moreover, in the assay with Pseudomonas aeruginosa [5], the ED50 was 5.48 mg/kg.
For `CC(C)(O/N=C(\C(=O)N[C@@H]1C(=O)N2C(C(=O)[O-])=C(C[N+]3(CCNC(=O)c4ccc(O)c(O)c4O)CCCC3)CS[C@H]12)c1csc(N)n1)C(=O)O`, in [1], the outcome was Active. Also, the MIC in the assay with Klebsiella pneumoniae was 1 µg/mL; with Pseudomonas aeruginosa [2], 4 µg/mL; with Acinetobacter baumannii, 32 µg/mL; in assay [8] it was 8 µg/mL; with Pseudomonas aeruginosa [3], 1 µg/mL; with Pseudomonas aeruginosa [4] it was 32 µg/mL. The MIC in the assay on Escherichia coli came to 32 µg/mL; in the assay with Pseudomonas aeruginosa [6], 16 µg/mL; in the assay on Pseudomonas aeruginosa [7], 2 µg/mL.
For `CC(C)(O/N=C(\C(=O)N[C@@H]1C(=O)N2C(C(=O)[O-])=C(C[N+]3(CCNC(=O)c4cc(Cl)c(O)c(O)c4Cl)CCCC3)CS[C@H]12)c1csc(N)n1)C(=O)O`, the outcome in assay [1] was Active. Also, the MIC in the assay with Klebsiella pneumoniae came out at 0.031 µg/mL; in the assay with Pseudomonas aeruginosa [2] it was 0.5 µg/mL; in the assay on Acinetobacter baumannii, 0.25 µg/mL; with Pseudomonas aeruginosa [9] it was 0.063 µg/mL; in assay [8], 0.125 µg/mL; in the assay on Pseudomonas aeruginosa [3] it was 0.125 µg/mL. Also, the MIC turned out to be 0.5 µg/mL in the assay on Pseudomonas aeruginosa [4], 0.5 µg/mL in the assay on Escherichia coli, 2 µg/mL in the assay on Pseudomonas aeruginosa [6] and 0.25 µg/mL in the assay on Pseudomonas aeruginosa [7].
In the case of `Cc1c(C(=O)NCC[N+]2(CC3=C(C(=O)[O-])N4C(=O)[C@@H](NC(=O)/C(=N\OC(C)(C)C(=O)O)c5csc(N)n5)[C@H]4SC3)CCCC2)ccc(O)c1O`, the result in assay [1] was Active. In addition, the MIC with Klebsiella pneumoniae stood at 0.25 µg/mL; in the assay with Pseudomonas aeruginosa [2], 2 µg/mL; with Acinetobacter baumannii, 8 µg/mL; in [8] it was 1 µg/mL; in the assay with Pseudomonas aeruginosa [3] it was 0.5 µg/mL; with Pseudomonas aeruginosa [4], 8 µg/mL. Further, the MIC with Escherichia coli was 8 µg/mL; in the assay on Pseudomonas aeruginosa [6], 8 µg/mL; in the assay on Pseudomonas aeruginosa [7], 1 µg/mL.
`CC(C)(O/N=C(\C(=O)N[C@@H]1C(=O)N2C(C(=O)[O-])=C(C[N+]3(CCNC(=O)c4cc(=O)c(O)c[nH]4)CCCC3)CS[C@H]12)c1csc(N)n1)C(=O)O`: the result in assay [1] was Active. Further, the minimum inhibitory concentration (MIC) was determined as 0.063 µg/mL with Klebsiella pneumoniae; 1 µg/mL in the assay on Pseudomonas aeruginosa [2]; 1 µg/mL in the assay on Acinetobacter baumannii; 0.25 µg/mL in the assay on Pseudomonas aeruginosa [9]; 0.25 µg/mL in assay [8]; 0.25 µg/mL with Pseudomonas aeruginosa [3]. The MIC with Pseudomonas aeruginosa [4] is 4 µg/mL; with Escherichia coli it was 1 µg/mL; in the assay with Pseudomonas aeruginosa [6], 4 µg/mL; with Pseudomonas aeruginosa [7], 0.25 µg/mL. The 50% effective dose (ED50) in the assay on Pseudomonas aeruginosa [5] is 10.2 mg/kg.
As to `CC(C)(O/N=C(\C(=O)N[C@@H]1C(=O)N2C(C(=O)[O-])=C(C[N+]3(CCNC(=O)c4ccc(O)c(O)c4)CCCC3)CS[C@H]12)c1csc(N)n1)C(=O)O`, the outcome in assay [1] was Active. Moreover, the MIC worked out at 0.5 µg/mL in the assay on Klebsiella pneumoniae; 2 µg/mL in the assay with Pseudomonas aeruginosa [2]; 16 µg/mL with Acinetobacter baumannii; 0.25 µg/mL in the assay on Pseudomonas aeruginosa [9]; 2 µg/mL in assay [8]; 0.125 µg/mL with Pseudomonas aeruginosa [3]. The MIC came to 2 µg/mL in the assay with Pseudomonas aeruginosa [4], 2 µg/mL with Escherichia coli, 2 µg/mL with Pseudomonas aeruginosa [6] and 1 µg/mL in the assay with Pseudomonas aeruginosa [7].
With `CC(C)(O/N=C(\C(=O)N[C@@H]1C(=O)N2C(C(=O)[O-])=C(C[N+]3(CCNC(=O)c4cccc(O)c4O)CCCC3)CS[C@H]12)c1csc(N)n1)C(=O)O`, the result in assay [1] was Active. The MIC in the assay on Klebsiella pneumoniae was determined as 0.063 µg/mL; in the assay with Pseudomonas aeruginosa [2], 0.5 µg/mL; with Acinetobacter baumannii, 1 µg/mL; in assay [8], 1 µg/mL; in the assay with Pseudomonas aeruginosa [3], 0.063 µg/mL; with Pseudomonas aeruginosa [4], 4 µg/mL. In addition, the MIC in the assay with Escherichia coli came to 2 µg/mL; in the assay with Pseudomonas aeruginosa [6] it was 8 µg/mL; in the assay on Pseudomonas aeruginosa [7], 0.25 µg/mL.
As to `CC(C)(O/N=C(\C(=O)N[C@@H]1C(=O)N2C(C(=O)[O-])=C(C[N+]3(CCNC(=O)c4cc(=O)c(O)cn4O)CCCC3)CS[C@H]12)c1csc(N)n1)C(=O)O`, the MIC in the assay with Klebsiella pneumoniae was determined as 0.063 µg/mL; in the assay on Pseudomonas aeruginosa [2], 1 µg/mL; with Acinetobacter baumannii, 0.5 µg/mL; in the assay with Pseudomonas aeruginosa [9], 0.063 µg/mL; in [8], 0.125 µg/mL; in the assay with Pseudomonas aeruginosa [3] it was 0.125 µg/mL. The MIC with Pseudomonas aeruginosa [4] was 4 µg/mL; in the assay with Escherichia coli it was 1 µg/mL; with Pseudomonas aeruginosa [6], 4 µg/mL; in the assay on Pseudomonas aeruginosa [7] it was 0.5 µg/mL. In addition, in the assay on Pseudomonas aeruginosa [5], the ED50 is more than 30 mg/kg.
